Assay results published in PMC9104286, “Characterization of a Cutibacterium acnes Camp Factor 1-Related Peptide as a New TLR-2 Modulator in In Vitro and Ex Vivo Models of Inflammation” (International Journal of Molecular Sciences, 2022).

Columns and labels:
C. acnes 6919 = assay: Bacterial growth monitored at 620 nm; format: cell-based, Cutibacterium acnes; conditions: C. acnes 6919, 5 days; B2 at 1 to 128 μM; antibiotics as positive control; growth at 620 nm
From the text: (§1) As a positive control for growth inhibition, we cultured the bacteria in the presence of the antibiotic ampicillin, doxycycline and clindamycin.
(§2) Bacterial growth was monitored at 620 nm.
(§3) We used 24 strains of C. acnes in the study: strain 6919 (Type IA1) from the American Type Culture Collection (Manassas, VA) and strains isolated from various infections (13 bone and joint infections, 1 case of pleuritis, 1 case of appendicitis, 1 case of pericarditis, 1 case of pneumonia, 3 cutaneous infections, 1 case of bacteremia and 2 ascitic fluid infections). C. acnes strains RON (IA1), TRI (IA2), LIE (IA2), CHR (IA2), GUE (IB) and PIE (IB) were isolated from patients with joint infections. All these strains were kindly provided by Dr. Philippe Morand from the Bacteriology Department at Cochin Hospital, Paris, France. C. acnes strains were grown under anaerobic conditions in liquid or solidified reinforced clostridial medium (RCM; Difco Laboratories, Detroit, MI, USA), in a GasPak™ EZ Anaerobic Container System (Becton Dickinson & Co, Franklin Lakes, NJ, USA) at 37 °C. For routine culture, 100 mL of RCM was used and the bacteria were harvested after 5 days at 37 °C, by centrifugation at 7,000 x g for 10 min and 4 °C. The pellets were pooled and washed in about 30 mL cold sterile phosphate-buffered saline (PBS) (1.5 mM KH2PO4, 2.7 mM Na2HPO4.7H2O, 0.15 M NaCl (pH 7.4)), and were then centrifuged again, as described above. The final bacterial pellet was suspended in sterile PBS (1:10 based on the volume of the culture). Staphylococcus aureus (ATCC #25923) and Staphylococcus epidermidis (ATCC #12228) were grown in tryptic soy broth (TSB) and brain heart infusion (BHI) (Sigma-Aldrich, Saint-Louis, MO, USA) under aerobic conditions at 37 °C.

S. aureus = assay: Bacterial growth monitored at 620 nm; format: cell-based, Staphylococcus aureus; conditions: 24 h; B2 at 1 to 128 μM; antibiotics as positive control; growth at 620 nm
From the text: as §1, §2, §3

S. epidermidis = assay: Bacterial growth monitored at 620 nm; format: cell-based, Staphylococcus epidermidis; conditions: 24 h; B2 at 1 to 128 μM; antibiotics as positive control; growth at 620 nm
From the text: as §1, §2, §3

human skin explants = assay: Ex vivo human skin explants, induction of proinflammatory molecules by stimuli; format: cell-based; conditions: skin explants stimulated 18 h, LPS or PGN 5 µg/ml, Luminex, culture supernatant, mean ± SEM, n = 6

Compound	effect on growth of C. acnes (in words) (C. acnes 6919)	effect on growth of S. aureus (in words) (S. aureus)	effect on growth of S. epidermidis (in words) (S. epidermidis)	GM-CSF levels (human skin explants)	IL-1β levels (human skin explants)	IL-10 production (human skin explants)	TNF-α production (human skin explants)
CCC[C@@H]1C[C@@H](C(=O)N[C@@H]([C@H]2O[C@H](SC)[C@H](O)[C@@H](O)[C@H]2O)[C@H](C)Cl)N(C)C1 [clindamycin]	susceptible	susceptible	susceptible	–	–	–	–
peptidoglycan [PGN]	–	–	–	4733 ± 218 pg/mL	23 ± 0.8 pg/mL	35 ± 1.4 pg/mL	126 ± 9.3 pg/mL
CC1(C)S[C@@H]2[C@H](NC(=O)[C@H](N)c3ccccc3)C(=O)N2[C@H]1C(=O)O [ampicillin]	susceptible	susceptible	resistant	–	–	–	–
C[C@H]1c2cccc(O)c2C(=O)C2=C(O)[C@]3(O)C(=O)C(C(N)=O)=C(O)[C@@H](N(C)C)[C@@H]3[C@@H](O)[C@@H]21 [doxycycline]	susceptible	susceptible	susceptible	–	–	–	–
lipopolysaccharide [LPS]	–	–	–	765 ± 30 pg/mL	392 ± 5.6 pg/mL	10 ± 0.3 pg/mL	22 ± 1.7 pg/mL
